In ChEMBL document CHEMBL4425099, “Use of Osmotic Pumps to Establish the Pharmacokinetic-Pharmacodynamic Relationship and Define Desirable Human Performance Characteristics for Aggrecanase Inhibitors” (J Med Chem, 2016):
The source made the active and inactive calls. The rule behind the calls is not given here.

Experiments:
[1] = test system: Rattus norvegicus; experiment: Reduction in ADAMTS-4/ADAMTS-5 mediated aggrecan cleavage products in Lewis rat model of MIA assessed as aggrecanase-cleaved fragments at 30 mg/kg, po bid administered post 3 days MIA induction measured after 4 hrs of last dosage on day 7 by NITEGE sandwich ELISA; type: functional
[2] = test system: Rattus norvegicus; experiment: Reduction in ADAMTS-4/ADAMTS-5 mediated aggrecan cleavage products in Lewis rat model of MIA assessed as aggrecanase-cleaved fragments at 30 mg/kg, po qd administered post 3 days MIA induction measured after 4 hrs of last dosage on day 7 by NITEGE sandwich ELISA; type: functional
[3] = AUC in Lewis rat at 10 mg/kg, po; type: ADME, organism-based; settings: in vivo
[4] = Cmax in Lewis rat plasma at 10 mg/kg, po; type: ADME, organism-based; parameters: dose 10 mg/kg, route oral
[5] = Plasma concentration in Lewis rat at 10 mg/kg, po bid measured after 8 hrs; type: ADME, organism-based
[6] = Plasma concentration in Lewis rat model of MIA at 10 mg/kg, po bid administered post 3 days MIA induction measured after 4 hrs of last dosage on day 7; type: ADME, organism-based
[7] = Plasma concentration in Lewis rat model of MIA at 30 mg/kg, po bid administered post 3 days MIA induction measured after 4 hrs of last dosage on day 7; type: ADME, organism-based

| Compound | inhibition [1] | inhibition [2] | AUC [3] | Cmax [4] | concentration at 8 h [5] | concentration at 4 h [6] | concentration at 4 h [7] |
| --- | --- | --- | --- | --- | --- | --- | --- |
| C[C@@]1(O)CCCN(S(=O)(=O)c2ccc(OCc3ccc(F)cc3Cl)cc2)[C@H]1C(=O)NO | inactive | inactive |  |  |  |  |  |
| O=C1NC(=O)[C@](CNC(=O)c2cc3cc(Cl)ccc3o2)(c2nccs2)N1 |  |  | 130 µM·h | 33 µM | 2.2 µM | 30 µM | 90 µM |
